Read-outs that look alike come from different tables or passages of the source.
Experiments:
[1] = biological target: T1, S1P1 R120A/E121A (Homo sapiens, UniProt P21453, E121A/R120A); experiment: Phosphorylated-ERK1/2 In Cell Western, S1P1 R120A/E121A mutant in CHOK1 cells; type: cell-based
T1 construct: expressed in transfected cells; host or cells: CHOK1
Procedure: (§1) A. Quick-change mutagenesis with PfuTurbo DNA polymerase (Stratagene) was conducted using S1P1/pcDNA3.1 (Missouri S&T cDNA Resource Centre) as the template. Primers were as follows: […]
(§2) PCR conditions were 15 cycles with the following parameters: 95° C. 30 sec, 58° C. 30 sec, 68° C. for 60 sec. All constructs were sequence verified.
(§3) CHOK1 cells were transfected using Fugene (Roche). Stably expressing mixed pools were selected with 2 mg/ml G418. Expression of functional S1P1/EDG1 receptor was confirmed by cell surface FACS with a S1P1 antibody (R&D Systems, clone 218713). Stable pools were seeded at 40,000 cells/well in a clear bottom 96-well tray, and incubated at 37° C. in 5% CO2 for 18 hrs. Cells were serum-starved in FreeStyle 293 medium (Invitrogen) for 4-6 h, then incubated for 5 min with a dose response of compound, in duplicate. Cells were fixed with 4% paraformaldehyde for 20 min, permeabilized with 0.1% Triton X-100 in PBS (4×5 min washes) and blocked for 1 h in Odyssey Blocking Buffer (LI-COR). All incubations were at room temperature. Cells were incubated for 18 h at 4° C. in Rabbit anti-Phospho-ERK1/2 (Cell Signaling #4377) and Mouse anti-ERK1/2 (Cell Signaling #9107) both diluted 1:800 in Odyssey Blocking Buffer. Plates were washed with 0.1% Tween-20 in PBS and then incubated with Odyssey Blocking Buffer containing IRDye 680-labeled goat anti-rabbit antibody (#926-32221; diluted 1/500) and IRDye 800CW-labeled goat anti-mouse antibody (#926-32210; diluted 1/1000). Plates were washed with 0.1% Tween-20 in PBS, all liquid was removed from the wells and the plates were scanned using a LICOR Odyssey scanner. The phospho-ERK1/2 signal was normalized to the ERK1/2 signal. Data was analyzed by non-linear regression using GraphPad Prism to determine the EC50 of binding.

[2] = biological target: T2, S1P1 N101A (Homo sapiens, UniProt P21453, N101A); experiment: Phosphorylated-ERK1/2 In Cell Western, S1P1 N101A mutant in CHOK1 cells; type: cell-based
T2 construct: expressed in transfected cells; host or cells: CHOK1
T2 sequence (P21453 whole entry N101A): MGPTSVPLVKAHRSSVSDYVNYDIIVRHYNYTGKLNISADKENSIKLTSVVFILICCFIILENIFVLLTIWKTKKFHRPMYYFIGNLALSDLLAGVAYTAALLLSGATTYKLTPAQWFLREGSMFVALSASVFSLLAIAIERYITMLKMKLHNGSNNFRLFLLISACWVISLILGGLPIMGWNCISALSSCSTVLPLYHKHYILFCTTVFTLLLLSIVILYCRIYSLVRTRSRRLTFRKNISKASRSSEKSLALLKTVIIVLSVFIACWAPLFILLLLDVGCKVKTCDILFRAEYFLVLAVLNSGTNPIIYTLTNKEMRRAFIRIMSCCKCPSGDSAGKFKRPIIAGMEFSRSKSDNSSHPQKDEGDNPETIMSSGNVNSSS
Procedure: as §1, §2, §3

[3] = biological target: T3, S1P1/EDG1 (Homo sapiens, UniProt P21453); experiment: Phosphorylated-ERK1/2 In Cell Western, wild type S1P1 in CHOK1 cells; type: cell-based
T3 sequence (P21453 whole entry): as the sequence (P21453 whole entry N101A) above, with A101N counted along it
Procedure: as §3, with “The phospho-ERK1/2 signal was normalized to the ERK1/2 signal.” left out

[4] = biological target: T4, S1P1 W269L (Homo sapiens, UniProt P21453, W269L); experiment: Phosphorylated-ERK1/2 In Cell Western, S1P1 W269L mutant; type: cell-based
T4 construct: expressed in transfected cells; host or cells: CHOK1
T4 sequence (P21453 whole entry W269L): as the sequence (P21453 whole entry N101A) above, with A101N, W269L counted along it
Procedure: as §3, with “The phospho-ERK1/2 signal was normalized to the ERK1/2 signal.” left out, “binding. […]” for “binding.”

[5] = biological target: T3, S1P1/EDG1; experiment: S1P1 CRE-bla CHOK1 reporter assay, inhibition of Forskolin induced cAMP; type: cell-based
How it was run: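 Read-out is a FRET β-lactamase substrate (2 h, room temperature) after 4 h, 37 °C compound treatment under 2 μM Forskolin in stable S1P1-transfected CRE-bla CHO-K1 cells. Ten-point curves; non-linear regression gives EC50 for inhibition of Forskolin-stimulated cAMP.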

[6] = biological target: T5, S1P2 (Homo sapiens, UniProt O95136); experiment: Specificity over other S1P receptors: S1P2 CRE-bla CHOK1 reporter assay; type: cell-based; settings: S1P2 CRE-bla CHOK1, without Forskolin; read-out: S1P2 agonist value (EC50)
T5 construct: expressed in transfected cells; host or cells: CRE-bla CHOK1
T5 sequence (O95136 whole entry, species assumed): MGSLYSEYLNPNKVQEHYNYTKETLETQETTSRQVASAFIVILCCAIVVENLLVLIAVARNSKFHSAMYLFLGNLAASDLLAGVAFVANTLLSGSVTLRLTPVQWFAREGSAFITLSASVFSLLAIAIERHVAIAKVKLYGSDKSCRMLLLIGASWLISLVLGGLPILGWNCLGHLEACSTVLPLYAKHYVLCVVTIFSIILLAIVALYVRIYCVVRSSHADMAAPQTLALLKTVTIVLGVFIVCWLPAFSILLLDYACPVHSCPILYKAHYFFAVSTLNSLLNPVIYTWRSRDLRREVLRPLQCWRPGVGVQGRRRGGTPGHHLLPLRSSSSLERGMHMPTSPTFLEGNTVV
Procedure: (§4) Cells were seeded into 384-well black wall/clear bottom plates at 10^4 cells/well/19.5 μl assay media (DMEM-phenol free, 0.5% charcoal/dextran stripped serum, 2 mM glutamine, 0.1 mM NEAA, 1 mM Na-Pyruvate, 25 mM Hepes) and incubated for 18 hrs at 37° C. in 5% CO2. Dose response curves (10-point) were generated in 10 mM Hepes, 0.1% Pluronic F127, in the presence of Forskolin. Cells were treated with 0.5 μl compound in the presence of 2 μM Forskolin for 4 hrs at 37° C. The FRET-based β-lactamase fluorescent substrate (LiveBLAzer™-FRET B/G Loading Kit CC4-AM; Invitrogen) was prepared according to manufacturer's directions, and incubated with cells for 2 hrs at room temperature. Plates were read at Ex:410/Em:458 and Ex:410/Em:522, and the response ratio determined. Data was analyzed by non-linear regression to determine the EC50 for inhibition of Forskolin induced cAMP.
(§5) To assess compound specificity on other S1P receptors the following cell lines were used: S1P2 CRE-bla CHOK1, S1P3-Gα15 NFAT-bla HEK293T (Invitrogen), S1P4-bla TANGO U2OS (Invitrogen), S1P5-bla TANGO U2OS (Invitrogen). The same assay set up for S1P1 was used but without Forskolin. S1P4 and S1P5 assays were performed in FreeStyle Expression medium (Invitrogen). S1P5 cells were incubated for 48 hrs in prior to treatment with compound.

[7] = biological target: T6, S1P3 (Homo sapiens, UniProt Q99500); experiment: Specificity over other S1P receptors: S1P3-Gα15 NFAT-bla HEK293T reporter assay; type: cell-based; settings: without Forskolin, read-out: S1P3 agonist value (EC50)
T6 construct: host or cells: NFAT-bla HEK293T
T6 sequence (Q99500 whole entry): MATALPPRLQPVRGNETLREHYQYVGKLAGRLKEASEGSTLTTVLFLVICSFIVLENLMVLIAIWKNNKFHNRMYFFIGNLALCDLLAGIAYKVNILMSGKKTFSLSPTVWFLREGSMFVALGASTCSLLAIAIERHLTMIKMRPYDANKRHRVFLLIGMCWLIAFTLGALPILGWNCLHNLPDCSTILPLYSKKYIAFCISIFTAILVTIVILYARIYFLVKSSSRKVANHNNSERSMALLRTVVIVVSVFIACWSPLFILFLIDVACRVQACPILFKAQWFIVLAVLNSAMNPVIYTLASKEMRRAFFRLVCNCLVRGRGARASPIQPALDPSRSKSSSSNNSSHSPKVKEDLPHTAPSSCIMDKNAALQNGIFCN
Procedure: as §4, §5

[8] = biological target: T7, S1P4 (Homo sapiens, UniProt O95977); experiment: Specificity over other S1P receptors: S1P4-bla TANGO U2OS assay; type: cell-based; settings: read-out: S1P4 agonist value (EC50)
T7 construct: Tango fusion (own knowledge: protease cleavage site plus GAL4-VP16 transcription factor at the receptor's C-terminus); host or cells: U2OS (Tango -bla)
T7 sequence (O95977 1-384): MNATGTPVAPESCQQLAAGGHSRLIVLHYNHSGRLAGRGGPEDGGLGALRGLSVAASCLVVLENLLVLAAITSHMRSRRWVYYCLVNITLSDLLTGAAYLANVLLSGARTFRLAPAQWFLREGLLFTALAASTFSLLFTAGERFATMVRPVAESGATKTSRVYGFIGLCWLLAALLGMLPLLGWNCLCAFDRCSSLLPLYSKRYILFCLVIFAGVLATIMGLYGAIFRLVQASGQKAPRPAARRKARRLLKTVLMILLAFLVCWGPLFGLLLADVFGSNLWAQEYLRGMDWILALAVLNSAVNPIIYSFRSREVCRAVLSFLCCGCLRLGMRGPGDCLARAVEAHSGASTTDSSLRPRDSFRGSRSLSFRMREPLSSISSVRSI
Procedure: as §4, §5

[9] = biological target: T8, S1P5 (Homo sapiens, UniProt Q9H228); experiment: Specificity over other S1P receptors: S1P5-bla TANGO U2OS assay; type: cell-based; settings: read-out: S1P5 agonist value (EC50)
T8 construct: Tango fusion (own knowledge: protease cleavage site plus GAL4-VP16 transcription factor at the receptor's C-terminus); host or cells: U2OS (Tango -bla)
T8 sequence (Q9H228 whole entry, the tested form may be a part): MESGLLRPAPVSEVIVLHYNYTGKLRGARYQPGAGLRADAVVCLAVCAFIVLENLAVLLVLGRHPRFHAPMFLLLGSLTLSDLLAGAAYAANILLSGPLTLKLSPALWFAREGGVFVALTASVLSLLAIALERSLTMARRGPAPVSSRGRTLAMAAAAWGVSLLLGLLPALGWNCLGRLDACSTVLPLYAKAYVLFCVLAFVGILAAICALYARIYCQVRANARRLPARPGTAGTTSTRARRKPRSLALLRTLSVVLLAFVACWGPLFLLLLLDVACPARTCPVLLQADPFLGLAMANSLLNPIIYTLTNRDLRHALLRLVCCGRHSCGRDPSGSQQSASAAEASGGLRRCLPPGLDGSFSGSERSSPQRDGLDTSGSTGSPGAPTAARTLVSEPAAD
Procedure: as §4, §5

[10] = tested on: CD4 or CD8 positive T cells; experiment: Lymphopenia in mice; type: in vivo; settings: female C57BL6 mice, 1 mg/kg oral gavage, area under the effect curve over 24 h
Procedure: In mice: Female C57BL6 mice (Simonsen Laboratories, Gilroy Calif.) were housed in an ALAAC accredited facility and the research was approved by the facilities Institutional Animal Care and Use Committee (IACUC). The animals were acclimated to the laboratory for at least 5 days prior to initiation of experiments. Mice (n=3/compound/time-point) were dosed by oral gavage with 1 mg/kg compound formulated in a vehicle consisting of 5% DMSO/5% Tween 20 and 90% 0.1N HCl. Control mice were dosed PO with the vehicle. Terminal whole blood samples were collected from isoflurane anesthetized mice by cardiac puncture into EDTA. Whole blood was incubated with rat anti-mouse CD16/CD32 (Mouse BD Fc Block, #553141), PE-Rat anti-mouse CD45R/B220 (BD #553089), APC-Cy7-Rat anti-mouse CD8a (BD #557654), and Alexa Fluor647-Rat anti-mouse CD4 (BD #557681) for 30 min on ice. Red blood cells were lysed using BD Pharm Lyse Lysing buffer (#555899) and white blood cells were analyzed by FACS. Lymphopenia was expressed as the % of white blood cells that were CD4 or CD8 positive T cells. The overall lymphopenia response over 24 h was estimated by calculating the area under the effect curve (AUEC) using the linear trapezoidal rule.

[11] = tested on: peripheral T-cell counts; experiment: Lymphopenia in rats, 3-5 day multiple dose regimen; type: in vivo, rat; settings: female rats, oral, 24 h after final dose of a 3-5 day multiple dose regimen
Procedure: In rats: Female rats (Simonsen Laboratories, Gilroy Calif.) were housed in an ALAAC accredited facility and the research was approved by the facilities Institutional Animal Care and Use Committee (IACUC). The animals were acclimated to the laboratory for at least 5 days prior to initiation of experiments. Rats (n=3/compound/time-point) were dosed by oral gavage with 1 mg/kg compound formulated in a vehicle consisting of 5% DMS0/5% Tween 20 and 90% 0.1N HCL. Control rats were dosed PO with the vehicle. Whole blood was collected from isoflurane anesthetized rats via the retro-orbital sinus and terminal samples were collected by cardiac puncture into EDTA. Whole blood was incubated with mouse anti-rat CD32 (BD #550271), PE-mouse anti-rat CD45R/B220 (BD #554881), PECy5-mouse anti-rat CD4 (BD #554839), and APC-mouse anti-rat CD8a (eBioscience #17-0084) for 30 minutes on ice. Red blood cells were lysed using BD Pharm Lyse Lysing buffer (#555899) and white blood cells were analyzed with a BD FACSArray. Lymphopenia was expressed as the % of white blood cells that were CD4 or CD8 positive T cells. The overall lymphopenia response over 24 h was estimated by calculating the area under the effect curve (AUEC) using the linear trapezoidal rule.
(§6) The compounds listed in Table 6 were formulated as suspensions in a vehicle consisting of 0.5% carboxymethyl cellulose (Acros Organics) in purified water (pH adjusted to ˜2.2 with hydrochloric acid). The same formulation was used in the rat lymphopenia and toxicology studies described below. The concentration of each compound in suspension was verified to be within ±10% of the target concentration by HPLC-UV.
Prior to the conduct of toxicology studies, the effect of three to five daily doses of each compound on peripheral T-cell counts of female rats was determined (see lymphopenia measurements in rats above). In these lymphopenia studies, blood samples were collected onto EDTA at intervals after the final study dose. The collection times were not identical for each study, however, all studies included a sample collected 24 hours after the final dose. The lymphopenia data was used as a biomarker to select equally pharmacologically active doses for the subsequent toxicology study. […] The high dose in the toxicology study represented a ≧20-fold increment over the low dose.
(§7) The dose producing a 10% increase in lung to body weight ratio was interpolated from a plot of dose versus lung to body weight. The lymphopenia response was measured 24 hours following the final dose of a 3-5 day multiple dose regimen.

[12] = Evaluation of therapeutic index in rats: 5 or 14 day toxicology study, lung to body weight ratio; type: in vivo, Sprague-Dawley rat; settings: for Dose Resulting in 10% increase in lung weight: rats, oral, 5 or 14 consecutive days, interpolated from dose versus lung to body weight
Procedure: All studies were conducted in non-fasted male and female Sprague-Dawely rats (Simonsen Laboratories). Rats were housed in an AAALAC accredited facility and the research was approved by the facilities Institutional Animal Care and Use Committee (IACUC). The animals were acclimated to the laboratory for at least 5 days prior to initiation of experiments.
as §6
In the toxicology studies, three male and three female rats per group were assigned to dosing groups using body weight based randomization. A control group in each study received vehicle. All animals were dosed orally by gavage on 5 or 14-consecutive days at a dose volume of 5 mL/kg/day. The animals were observed daily for any manifestations of adverse effect. Twenty-four hours after the final study dose, the rats were anesthetized with isoflurane and a terminal blood sample was taken by intra-cardiac puncture for hematology and clinical chemistry evaluation (IDEXX Laboratories, Sacramento, Calif.). The lungs with trachea were collected, weighed, and then prepared for histology by perfusion with 10% neutral buffered formalin via the trachea. The internally fixed lungs were then preserved in 10% neutral buffered formalin and submitted for histological examination (IDEXX).
The dose of each compound resulting in a 10% increase in the lung to terminal body weight ratio was estimated for each compound by linear interpolation. The therapeutic index was estimated as the ratio of the dose producing 10% lung weight increase to the dose producing 50% T-Cell depletion.
as §7

[13] = agonist activity range, S1P1 CRE-bla CHOK1, 2 μM Forskolin, read-out: S1P1 ACTIVITY
[14] = S1P1 CRE-bla CHOK1, with Forskolin, read-out: S1P1 agonist value (EC50)

T1 sequence (P21453 whole entry R120A/E121A): as the sequence (P21453 whole entry N101A) above, with A101N, R120A, E121A counted along it

SMILES	Effect of mutation on binding of compound (in words) ([1]; S1P1 R120A/E121A)	Fold change in EC50 compared to wild type S1P1 ([1]; S1P1 variant R120A/E121A, phospho-ERK1/2)	Effect of mutation on binding of compound (in words) ([2]; S1P1 N101A)	Fold change in EC50 compared to wild type S1P1 ([2]; S1P1 variant N101A, phospho-ERK1/2)	Phosphorylation of ERK1/2 by S1P1 agonist (in words) [3]	Effect of mutation on binding of compound (in words) [4]	EC50 [5, 13]	EC50 [6]	EC50 [7]	EC50 [8]	EC50 [9]	Mouse Lymphopenia (AUEC) [10]	EC50 [5, 14]	Dose Producing 50% lymphopenia [11]	Dose Resulting in 10% increase in lung weight [12]	TI 14 days ([12]; therapeutic index: dose producing 10% lung weight increase / dose producing 50% T-cell depletion, 14 day toxicology study in rats)	TI 5 days ([12]; therapeutic index: dose producing 10% lung weight increase / dose producing 50% T-cell depletion, 5 day toxicology study in rats)
CC(C)Oc1ccc(-c2nc(-c3cccc4c3CCC4NCCC(=O)O)no2)cc1C#N (racemic) [Compound 38]	diminishes binding	11	had no effect on binding	2	induce phosphorylation of ERK1/2	abolishes binding	< 0.05 nM										
CCOc1ccc(-c2nc(-c3cccc4c3CCC4O)no2)cc1OCC (racemic) [Compound 254, (+/−)-4-(5-(3,4,diethoxyphenyl)-1,2,4-oxadiazol-3-yl)-2,3-dihydro-1H-inden-1-ol, reference compound]							0.05 to 0.5 nM	5500 nM	5270 nM	5500 nM	56.8 nM	84	0.16 nM				
CC(C)Oc1ccc(-c2nc(-c3cccc4c3CC[C@@H]4NCCO)no2)cc1C#N [Compound 86, (S)-5-(3-(1-(2-hydroxyethylamino)-2,3-dihydro-1H-inden-4-yl)-1,2,4-oxadiazol-5-yl)-2-isopropoxy benzonitrile]								9560 nM	9940 nM	4190 nM	55.2 nM	1342		0.15 mg/kg	2.7 mg/kg	18	
CC(C)Oc1ccc(-c2nc(-c3cccc4c3CC[C@H]4NC(=O)N3CC(O)C3)no2)cc1C#N [Compound 234, (R)-N-(4-(5-(3 cyano-4-isopropoxyphenyl)-1,2,4-oxadiazol-3-yl)-2,3-dihydro-1H-inden-1-yl)-3-hydroxyazetidine-1-carboxamide]							0.05 to 0.5 nM	> 10000 nM	> 10000 nM	739 nM	76.1 nM		0.1 nM	0.90 mg/kg	21.3 mg/kg		24
